Results on four molecules are retold here after patent publication US11479570B2, “Pentafluorophosphate derivative, its uses and an appropriate manufacturing method” (FREIE UNIVERSITÄT BERLIN, priority 2017, dated 2022).

One may read the Ki as the dissociation constant of the complex between target and ligand, obtained from inhibition or displacement.

Entries after “also recorded” stand apart in the source; their conditions may differ. Read-outs that look alike come from different tables or passages of the source.

Data set [1] has as its target T1, protein tyrosine phosphatase PTP1B (Homo sapiens, UniProt P18031).
T1 sequence (P18031 1-435): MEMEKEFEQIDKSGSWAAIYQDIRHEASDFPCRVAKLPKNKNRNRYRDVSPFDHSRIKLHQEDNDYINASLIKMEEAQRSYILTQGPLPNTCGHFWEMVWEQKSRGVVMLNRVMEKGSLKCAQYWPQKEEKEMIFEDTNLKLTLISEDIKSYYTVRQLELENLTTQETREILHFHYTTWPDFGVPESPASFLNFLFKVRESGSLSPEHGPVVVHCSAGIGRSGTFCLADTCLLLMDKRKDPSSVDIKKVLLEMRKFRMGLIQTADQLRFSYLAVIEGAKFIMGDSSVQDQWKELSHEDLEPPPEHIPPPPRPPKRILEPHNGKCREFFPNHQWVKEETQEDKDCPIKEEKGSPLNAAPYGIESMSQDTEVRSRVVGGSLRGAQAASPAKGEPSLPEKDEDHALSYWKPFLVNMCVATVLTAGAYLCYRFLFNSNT
To be noted: data published (literature), cited from earlier work.

Data set [2] addresses T1, protein tyrosine phosphatase PTP1B. The experiment in a line: PTP1B enzyme assay (detection of chromogenic para-nitrophenolate). The class given is biochemical. To be noted: for Ki: detection of the chromogenic para-nitrophenolate at 405 nm, read-out: inhibition constant KI (inhibitory effect on PTP1B in an enzyme assay). The source says: (§1) In order to enhance the solubility in aqueous systems and to exclude any interfering effects of the counter ion NMe4^+, compound 13 was transferred into its sodium salt 13-Na.
During the measurements of the inhibitory effect of 13-Na, inhibitors with known inhibition constants were used in parallel as positive controls in order to verify the reliability of the assay.

Data set [3] in a line: Stability in aqueous solution by 19F-NMR spectroscopy. The class given is physicochemical. The note with it: pH range from 2 to 12 in aqueous solution, D2O, after several hours.
Source text: as §1

A short description of data set [4]: Solubility. The class given is physicochemical. To be noted: tetramethylammonium salt. From the text: The obtained product 14-Na (cf. FIG. 5B) was stable and well soluble in the used biochemical buffer.
A short description of data set [5]: Lipophilicity from elution properties on RP-HPLC. It counts as physicochemical. To be noted: in accordance with elution properties on RP-HPLC. How it is done: Formation of α,α-difluorobenzyl-penta-P-fluorophosphate 13 was confirmed by HPLC-MS analysis displaying very uncommon elution properties both on C8 and C18 reversed phase silica. While the phosphonic acid 12 eluted at 3.4 min on RP-18 material displaying a symmetric peak and a characteristic UV spectrum, compound 13 interacted strongly with the column material, resulting in elution after 9 min at the very end of the default gradient (5 to 95% ACN in water). Additionally, no absorbance of 13 at 210 nm, 254 nm and 290 nm could be observed. These properties hampered chromatographic purifications like reverse phase MPLC.

As to Fluorobenzyl phosphonic acid, the Ki in data set [1] (comparative examples, read-out: Inhibitory effect on PTP1B in an enzyme assay, KI) is roughly 5000 µM.

Take `C[N+](C)(C)C.FC(F)(c1ccccc1)[P-](F)(F)(F)(F)F` [compound 13, tetramethylammonium (difluoro-(phenyl)-methyl)-penta-P-fluorophosphate]: in data set [2], the “inhibitory potential towards PTP1B (in words)” value was “reversible inhibitor; also recorded: significant affinity” and the inhibitory constant (Ki) amounted to 1800 µM. Also, the “stability (degradation or hydrolysis)” value in data set [3] is reported as “no degradation or hydrolysis could be observed”. Moreover, the “solubility in acetonitrile versus water” value in data set [4] is reported as “more soluble in acetonitrile than in water”. In addition, the “lipophilicity compared to phosphonate 12” value in data set [5] was “significantly more lipophilic”.

With `C[N+](C)(C)C.FC(F)(c1ccc2ccccc2c1)[P-](F)(F)(F)(F)F` [compound 14, tetramethylammonium (difluoro-(naphtha-2-yl)-methyl)-penta-P-fluorophosphate], in data set [2], the Ki amounted to 26 µM.

For the molecule `O=P(O)(O)Cc1ccccc1` [Benzyl phosphonic acid], in data set [1] (comparative example), the “Inhibitory effect on PTP1B in an enzyme assay (in words)” value is listed as “No inhibition”.
